Data published in publication PMC11124136, “New Thiazolidine-4-One Derivatives as SARS-CoV-2 Main Protease Inhibitors” (Pharmaceuticals, 2024).
Like-named read-outs stand apart in the source and are kept apart here.

How the values were obtained:
in vitro = format: cell-based; conditions: African green monkey
Method: (§1) Vero-E6 GFP cells were seeded at 10^4 cells/well in 96-well black plates (PerkinElmer). The following day, cells were incubated, with or without compounds, with 2 μM P-gp inhibitor CP-100356 [47]. The media was removed 24 h after treatment, and the total well GFP fluorescence was measured using Victor NIVO 5 with 485/535 nm excitation wavelength. The cytotoxic effect of compounds was calculated as a percentage of cell viability with respect to untreated control. Data were analyzed using Prism 9. Version 9.1.2.

[1] = tested on: SARS-CoV-2 BetaCoV/Belgium/GHB-03021/2020 strain; test: microbe, parasite or virus in culture; format: cell-based; conditions: read-out: EC50 + CP_100356
SARS-CoV-2 Mpro = SARS-CoV-2 Mpro (Severe acute respiratory syndrome coronavirus 2, UniProt P0DTD1); test: biochemical; format: biochemical; conditions: for IC50: FRET assay, concentration reducing Mpro activity by 50%, mean ± SD of three independent experiments, highest concentration tested 30 μM; for remaining activity at 30 µM: SARS-CoV-2 Mpro, at 30 μM (highest concentration tested), read-out: Percentage of control activity measured in the presence of the indicated drug concentration
Vero-E6 GFP cells = test: in vitro; format: cell-based; conditions: concentration reducing Vero E6-GFP viability by 50%; 2 μM CP-100356, 24 h; read-out: CC50 +CP_100356
Method: as §1

[2] = Severe acute respiratory syndrome coronavirus 2, Vero C1008, 72 h, concentration reducing viral replication by 50%, […]

Row | SMILES | CC50 at 24 h (in vitro) | EC50 [1, 2] | melting point | IC50 (SARS-CoV-2 Mpro) | CC50 (Vero-E6 GFP cells) | EC50 [1] | remaining activity at 30 µM (SARS-CoV-2 Mpro)
1 | O=C1CSC(c2ccc([N+](=O)[O-])cc2)N1CCc1ccccc1Cl (stereo not drawn) [Compound 4g] | > 100 µM | > 100 µM | – | – | – | – | –
2 | O=C1CSC(c2ccc([N+](=O)[O-])cc2)N1CCc1ccc(F)cc1 (stereo not drawn) [Compound 4d, 2-(4-nitrophenyl)-3-(4-fluorophenylethyl)-1,3-thiazolidin-4-one] | > 100 µM | > 100 µM | 149 to 151 °C | 27.5 ± 5.5 µM | – | – | –
3 | CC(C)C[C@H](NC(=O)OCc1ccccc1)C(=O)N[C@@H](CC1CCNC1=O)C(O)S(=O)(=O)O (stereo partly drawn) [GC376, reference compound] | – | – | – | – | > 100 µM | 0.626 ± 0.06 µM | –
4 | O=C1CSC(c2ccc([N+](=O)[O-])cc2)N1CCc1ccccc1Cl (stereo not drawn) [Compound 4e] | – | – | 123 to 124.5 °C | – | – | – | –
5 | COc1ccccc1CCN1C(=O)CSC1c1ccc([N+](=O)[O-])cc1 (stereo not drawn) [Compound 4e] | > 100 µM | > 100 µM | – | – | – | – | 54%
6 | O=C1CSC(c2ccc([N+](=O)[O-])cc2)N1CCc1ccc(Cl)cc1 (stereo not drawn) [Compound 4i] | > 100 µM | > 100 µM | – | – | – | – | 54%
7 | O=C1CSC(c2ccc([N+](=O)[O-])cc2)N1CCc1cccc(F)c1 (stereo not drawn) [Compound 4c, 2-(4-nitrophenyl)-3-(3-fluorophenylethyl)-1,3-thiazolidin-4-one] | > 100 µM | > 100 µM | 165 to 167 °C | > 30 µM | – | – | 87%
8 | COc1ccc(CCN2C(=O)CSC2c2ccc([N+](=O)[O-])cc2)cc1 (stereo not drawn) [Compound 4f] | > 100 µM | > 100 µM | – | – | – | – | 82%
9 | O=C1CSC(c2ccc([N+](=O)[O-])cc2)N1CCc1ccccc1 (stereo not drawn) [Compound 4a, 2-(4-nitrophenyl)-3-(phenylethyl)-1,3-thiazolidin-4-one] | > 100 µM | > 100 µM | 125 °C | > 30 µM | – | – | 53%
10 | O=C1CSC(c2ccc([N+](=O)[O-])cc2)N1CCc1ccccc1F (stereo not drawn) [Compound 4b, 2-(4-nitrophenyl)-3-(2-fluorophenylethyl)-1,3-thiazolidin-4-one] | > 100 µM | > 100 µM | 150 to 151 °C | > 30 µM | – | – | 70%
